{"source": "patent US5597798A", "about": "“Taxol and epidermal growth factor used to enhance treatment of ovarian cancer” (The Regents of the University of California, priority 1994, dated 1997)", "key": {"2008 cells": {"test_system": "2008 cells", "experiment": "Colony forming (colonogenic) assay, effect of TPA, phorbol and staurosporine on DDP sensitivity"}, "[1]": {"test_system": "UMC 31 small cell lung cancer cells", "experiment": "Colony forming assay, effect of EGF on cisplatin sensitivity", "type": "cell-based, human", "description": "(§1) The following cell lines were used in these studies: 2008 human ovarian carcinoma (Disaia, et al., Am. J. Obstet. Gynecol. 114:978 (1972)), COLO 316 human ovarian carcinoma (Woods et al., Cancer Res. 39:4449 (1979)), a DDP resistant variant 2008/C13*, derived from the parent 2008 cell line (Andrews, et al., Cancer Res. 45:6250 (1985)), A549 non-small cell lung cancer (Lieber et al., Int. J. Cancer 17:62 (1976)), NCI-H520 squamous cell lung cancer (Brower et al., Cancer Res. 46: 798 (1986)), NCI-H596 adenosquamous lung cancer (Banks-Schlegel et al., Cancer Res. 45: 1187 (1985)), UMC 31 small cell lung cancer cells (Graziano et al., Genes, Chromosomes and Cancer 3: 283 (1991)), GLC4 small cell lung cancer cells (Zijlstra et al., Cancer Res. 47: 1780 (1987)), UMCC10b head and neck cancer cells (Krause et al., Arch. Otolayngol. 107: 703 (1981)), 5637 bladder cancer cells (Fogh et al., J. Natl. Cancer Inst. 58: 209 (1977)), MIA PaCa-2 pancreatic cancer cells (Yunis et al., Int. J. Cancer 19:128 (1977)), Du 145 prostate cancer (Mickey Cancer Res. 37: 4049 (1977)) , COLO 205 colon cancer (Semple et al., Cancer Res. 38:1345 (1978)), KB-3-1 cervix cancer (Akiyama et al., Somat. Cell Mol. Genet. 11: 117 (1985)) , MCF-7 breast cancer (Soule et al., J. Natl. Cancer Inst. 51:1409 (1973)), A431 epidermoid carcinoma of the skin (Giard et al., J. Natl. Cancer Inst. 51: 1417 (1973)) and T-289 melanoma cells (Taetle et al., Cancer (Philadelphia) 60: 1836 (1987)). The human cell line 2008 was established from a patient with a serous cystadenocarcinoma of the ovary. The 8-fold DDP resistant cell line 2008/C13* was generated by 13 monthly selections with […], followed by chronic exposure to stepwise increasing concentrations of DDP, from 0.25 to 5 uM. A resistant subline, designated 2008/C13*5, was obtained by monthly selections with 1 μM DDP. The cells were grown on tissue culture dishes in a humidified incubator at 37° C. and 5% CO2 atmosphere. Cells were grown in either of the following types of media: RPMI 1640, RPMI 1640 plus HITES buffer, DMEM low glucose, or DMEM high glucose supplemented with 5% to 10% heat inactivated fetal calf serum and 2 mM glutamine.\n(§2) Colony forming assays were used to assess the effect of each drug on the sensitivity of various tumor cell lines to cytotoxic agents (Andrews, et al., Chem.-Biol. Interact 65:51-58 (1988)). For assays performed on plastic tissue culture dishes, five ml of suspended cells were plated on 60-mm polystyrene tissue culture dishes (Corning Glass Works, Corning, N.Y.). Cells were allowed to attach overnight, then 10 μl of stock drug solution was added to triplicate plates at each drug concentration. Control plates received diluent alone. After 1 h, the drug-containing medium was aspirated and replaced with drug free medium. Plates were incubated in humidified 5% CO2 air, and after 14 days plates were fixed with methanol and stained with Giemsa. Colonies of over 60 cells were counted macroscopically.\n(§3) The drug containing media was removed and cells were resuspended in 5 ml of complete medium containing 0.36% low melting-temperature agarose at 37° C. The cell suspension was mixed well and then aliquotted at 1 ml per dish in triplicate onto prepared 35 mm dishes containing a basement layer of solidified 1% agarose. The cell-containing layer was allowed to solidify at 4° C. for 10 minutes, and the dishes were incubated at 37° C. in humidified 5% CO2. Colonies greater than 125 um were counted after 5 days.\n(§4) ^a Dose response curves were determined by colony forming assay. Cell"}, "[2]": {"test_system": "MIA PaCa-2 pancreatic cancer cells", "experiment": "Colony forming assay, effect of EGF on cisplatin sensitivity", "type": "cell-based, human", "description": "as §1, §2, §3, §4"}, "[3]": {"test_system": "UMSCC 10b head and neck cancer cells", "experiment": "Colony forming assay, effect of EGF on cisplatin sensitivity", "type": "cell-based, human", "description": "as §1, §2, §3, §4"}, "[4]": {"test_system": "COLO 205 colon cancer cells", "experiment": "Colony forming assay, effect of EGF on cisplatin sensitivity", "type": "cell-based, human", "description": "as §1, §2, §3, §4"}, "[5]": {"test_system": "A549 non-small cell lung cancer cells", "experiment": "Colony forming assay, effect of EGF on cisplatin sensitivity", "type": "cell-based, human", "description": "as §1, §2, §3, §4"}, "[6]": {"test_system": "Du 145 prostate cancer cells", "experiment": "Colony forming assay, effect of EGF on cisplatin sensitivity", "type": "cell-based, human", "description": "as §1, §2, §3, §4"}, "[7]": {"test_system": "GLC 4 small cell lung cancer cells", "experiment": "Colony forming assay, effect of EGF on cisplatin sensitivity", "type": "cell-based, human", "description": "as §1, §2, §3, §4"}, "[8]": {"test_system": "T-289 malignant melanoma cells", "experiment": "Colony forming assay, effect of EGF on cisplatin sensitivity", "type": "cell-based, human", "description": "as §1, §2, §3, §4"}, "[9]": {"test_system": "KB-3-1 cervix cancer cells", "experiment": "Colony forming assay, effect of EGF on cisplatin sensitivity", "type": "cell-based, human", "description": "as §1, §2, §3, §4"}, "[10]": {"test_system": "MCF-7 breast cancer cells", "experiment": "Colony forming assay, effect of EGF on cisplatin sensitivity", "type": "cell-based, human", "description": "as §1, §2, §3, §4"}, "[11]": {"details": "ratio of IC50 in control and EGF-treated cells"}, "[12]": {"details": "read-out: IC50 in absence of EGF, cisplatin 1 h, no EGF"}, "[13]": {"details": "read-out: IC50 in presence of EGF, 10 nM EGF and cisplatin concurrently for 1 h"}}, "note": "Like-named read-outs stand apart in the source and are kept apart here."}
{"molecule": "N.N.[Cl][Pt][Cl]", "note": "[cisplatin]", "values": [{"measurement": "colony survival", "setting": "2008 cells; 2 μM DDP in the absence of TPA (FIG. 6)", "value": "approximately 80%"}, {"measurement": "survival, % of control", "setting": "2008 cells; DDP (2 μM) alone", "value": "85±5", "unit": "%"}, {"measurement": "Dose modifying factor", "setting": "[1]; [11]", "value": 0.8}, {"measurement": "IC50", "setting": "[1]; [12]", "value": 5.4, "unit": "µM"}, {"measurement": "IC50", "setting": "[1]; [13]", "value": 6.86, "unit": "µM"}, {"measurement": "Dose modifying factor", "setting": "[2]; [11]", "value": 1.4}, {"measurement": "IC50", "setting": "[2]; [12]", "value": 7.65, "unit": "µM"}, {"measurement": "IC50", "setting": "[2]; [13]", "value": 5.53, "unit": "µM"}, {"measurement": "Dose modifying factor", "setting": "[3]; [11]", "value": 3.8}, {"measurement": "IC50", "setting": "[3]; [12]", "value": 6.76, "unit": "µM"}, {"measurement": "IC50", "setting": "[3]; [13]", "value": 1.76, "unit": "µM"}, {"measurement": "Dose modifying factor", "setting": "[4]; [11]", "value": 1.7}, {"measurement": "IC50", "setting": "[4]; [12]", "value": 27.6, "unit": "µM"}, {"measurement": "IC50", "setting": "[4]; [13]", "value": 16.5, "unit": "µM"}, {"measurement": "Dose modifying factor", "setting": "[5]; [11]", "value": 2.0}, {"measurement": "IC50", "setting": "[5]; read-out: IC50 in absence and presence of EGF (single figure printed), 10 nM EGF and cisplatin concurrently for 1 h", "value": 14.5, "unit": "µM"}, {"measurement": "Dose modifying factor", "setting": "[6]; [11]", "value": 1.5}, {"measurement": "IC50", "setting": "[6]; [12]", "value": 8.52, "unit": "µM"}, {"measurement": "IC50", "setting": "[6]; [13]", "value": 5.52, "unit": "µM"}, {"measurement": "Dose modifying factor", "setting": "[7]; [11]", "value": 0.7}, {"measurement": "IC50", "setting": "[7]; [12]", "value": 12.2, "unit": "µM"}, {"measurement": "IC50", "setting": "[7]; [13]", "value": 18.2, "unit": "µM"}, {"measurement": "Dose modifying factor", "setting": "[8]; [11]", "value": 0.8}, {"measurement": "IC50", "setting": "[8]; [12]", "value": 2.02, "unit": "µM"}, {"measurement": "IC50", "setting": "[8]; [13]", "value": 2.49, "unit": "µM"}, {"measurement": "Dose modifying factor", "setting": "[9]; [11]", "value": 2.0}, {"measurement": "IC50", "setting": "[9]; [12]", "value": 9.71, "unit": "µM"}, {"measurement": "IC50", "setting": "[9]; [13]", "value": 4.79, "unit": "µM"}, {"measurement": "Dose modifying factor", "setting": "[10]; [11]", "value": 1.0}, {"measurement": "IC50", "setting": "[10]; [12]", "value": 3.82, "unit": "µM"}, {"measurement": "IC50", "setting": "[10]; [13]", "value": 3.8, "unit": "µM"}]}
